In the NIST ThermoML archive (doi:10.1016/j.fluid.2012.11.039):

Assays:
[1] = Liquid, Vibrating tube method
[2] = xn = mol fraction of the nth substance listed; conditions: Liquid, Vibrating tube method

CCCCCCCCCC [decane]
[1], 373.2 K
Conditions	mass density [kg/m3]
100 kPa	667.1
1000 kPa	668.4
2000 kPa	669.6
3000 kPa	670.9
4000 kPa	672.1
5000 kPa	673.4
6000 kPa	674.5
7000 kPa	675.7
8000 kPa	676.9
9000 kPa	678.1
10000 kPa	679.2

CCCCCCCCCC [decane] + CCCCCCCCCCCCCCCCCC
[2], 373.2 K, x2 = 0
Conditions	mass density [kg/m3]
100 kPa	667.1
1000 kPa	668.4
2000 kPa	669.6
3000 kPa	670.9
4000 kPa	672.1
5000 kPa	673.4
6000 kPa	674.5
7000 kPa	675.7
8000 kPa	676.9
9000 kPa	678.1
10000 kPa	679.2

CCCCCCCCCCCCCCCCCC [octadecane]
[1], 372.9 K
Conditions	mass density [kg/m3]
1010 kPa	728.2
2010 kPa	729.2
3020 kPa	730.2
4000 kPa	731.1
5000 kPa	732
6020 kPa	732.9
7010 kPa	733.8
8000 kPa	734.7
8990 kPa	735.6
9980 kPa	736.4

CCCCCCCCCCCCCCCCCC [octadecane] + CCCCCCCCCC
[2]
Conditions	mass density [kg/m3]
372.7 K, 100 kPa, x1 = 0.25	689.9
372.7 K, 1010 kPa, x1 = 0.25	691
372.7 K, 2010 kPa, x1 = 0.25	692.2
372.7 K, 3020 kPa, x1 = 0.25	693.3
372.7 K, 4010 kPa, x1 = 0.25	694.4
372.7 K, 5010 kPa, x1 = 0.25	695.5
372.7 K, 6010 kPa, x1 = 0.25	696.6
372.7 K, 7010 kPa, x1 = 0.25	697.7
372.7 K, 8010 kPa, x1 = 0.25	698.7
372.7 K, 9020 kPa, x1 = 0.25	699.8
372.7 K, 10010 kPa, x1 = 0.25	700.8
372.8 K, 100 kPa, x1 = 0.5	705.7
372.8 K, 100 kPa, x1 = 0.75	717.8
372.8 K, 1020 kPa, x1 = 0.5	706.8
372.8 K, 1050 kPa, x1 = 0.75	718.9
372.8 K, 2020 kPa, x1 = 0.5	707.8
372.8 K, 2020 kPa, x1 = 0.75	719.9
372.8 K, 2940 kPa, x1 = 0.5	708.7
372.8 K, 3000 kPa, x1 = 0.75	720.8
372.8 K, 4000 kPa, x1 = 0.75	721.8
372.8 K, 4010 kPa, x1 = 0.5	709.9
372.8 K, 5010 kPa, x1 = 0.5	710.9
372.8 K, 5010 kPa, x1 = 0.75	722.8
372.8 K, 6000 kPa, x1 = 0.5	711.9
372.8 K, 6000 kPa, x1 = 0.75	723.7
372.8 K, 7000 kPa, x1 = 0.5	712.9
372.8 K, 7010 kPa, x1 = 0.75	724.6
372.8 K, 8000 kPa, x1 = 0.5	713.9
372.8 K, 8000 kPa, x1 = 0.75	725.5
372.8 K, 8990 kPa, x1 = 0.75	726.4
372.8 K, 9010 kPa, x1 = 0.5	714.8
372.8 K, 10010 kPa, x1 = 0.5	715.8
372.8 K, 10010 kPa, x1 = 0.75	727.4
372.9 K, 1010 kPa, x1 = 1	728.2
372.9 K, 2010 kPa, x1 = 1	729.2
372.9 K, 3020 kPa, x1 = 1	730.2
372.9 K, 4000 kPa, x1 = 1	731.1
372.9 K, 5000 kPa, x1 = 1	732
372.9 K, 6020 kPa, x1 = 1	732.9
372.9 K, 7010 kPa, x1 = 1	733.8
372.9 K, 8000 kPa, x1 = 1	734.7
372.9 K, 8990 kPa, x1 = 1	735.6
372.9 K, 9980 kPa, x1 = 1	736.4
